Test results from patent US12624025B2, “Inhibitors of SARM1” (DISARM THERAPEUTICS, INC., priority 2019, dated 2026).

Target: T1, SARM1 SAM-TIR (Homo sapiens, UniProt Q6SZW1)
T1 construct: a fragment of the SARM1 molecule encompassing the SAM and TIR domains; tandem Strep-tag II (WSHPQFEK twice, with Gly/Ser linkers); made in house; host or cells: NRK1-HEK293T cells (transient transfection; crude lysate supernatant used, not purified)
T1 sequence (Q6SZW1 409-724 limits assumed): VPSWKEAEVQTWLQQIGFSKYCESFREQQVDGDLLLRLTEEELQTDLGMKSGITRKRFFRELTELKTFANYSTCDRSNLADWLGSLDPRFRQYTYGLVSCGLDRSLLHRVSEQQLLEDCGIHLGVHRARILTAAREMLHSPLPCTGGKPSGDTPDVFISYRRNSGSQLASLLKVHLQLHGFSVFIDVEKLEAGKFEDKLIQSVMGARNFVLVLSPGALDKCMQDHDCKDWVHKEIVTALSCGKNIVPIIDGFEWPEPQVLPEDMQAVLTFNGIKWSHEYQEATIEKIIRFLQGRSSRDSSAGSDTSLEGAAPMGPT
Assay: SAM-TIR SARM1 IC50 assay (NADase activity, NAD+ cleavage, RapidFire MS readout)
Format: biochemical
Conditions: not given
Description: This Example describes an assay of SAM-TIR NADase activity and use of this assay to measure the efficacy of compounds of Formula I to block SARM1 mediated NAD+ cleavage. This assay is optimized in such a way as to characterize the efficacy of the compounds in Formula I to inhibit SARM1 activity and to calculate an IC50 value for each compound. This assay makes use of a fragment of the SARM1 molecule encompassing the SAM and TIR domains.
NRK1-HEK293T cells were seeded onto 150 cm^2 plates at 20×10^6 cells per plate. The next day, the cells were transfected with 15 μg FCIV-SST (SAM-TIR expression plasmid, SEQ ID NO: 1) using X-TREMEGENE™ 9 DNA Transfection Reagent (Roche product #06365787001).
The cultures were supplemented with 1 mM NR at time of transfection to minimize toxicity from SAM-TIR overexpression. Forty-eight hours after transfection, cells were harvested, pelleted by centrifugation at 1,000 rpm (Sorvall ST 16R centrifuge, Thermo Fisher), and washed once with cold PBS (0.01 M phosphate buffered saline NaCl 0.138 M; KCl 0.0027 M; pH 7.4). The cells were resuspended in PBS with protease inhibitors (cOmplete™ protease inhibitor cocktail, Roche product #11873580001) and cell lysates were prepared by sonication (Branson Sonifer 450, output=3, 20 episodes of stroke). The lysates were centrifuged (12,000×g for 10 min at 4° C.) to remove cell debris and the supernatants (containing SARM1 SAM-TIR protein) were stored at −80° C. for later use in the in vitro SARM1 SAM-TIR NADase assay (see below). Protein concentration was determined by the Bicinchoninic (BCA) method and used to normalize lysate concentrations.
The enzymatic assay was performed in a 384-well polypropylene plate in Dulbecco's PBS buffer in a final assay volume of 20 μL. SAM-TIR lysate with a final concentration of 5 μg/mL was pre-incubated with the respective compound at 1% DMSO final assay concentration over 2 h at room temperature. The reaction was initiated by addition of 5 μM final assay concentration of NAD+ as substrate. After a 2 hr room temperature incubation, the reaction was terminated with 40 μL of stop solution of 7.5% trichloroactetic acid in acetonitrile. The NAD+ and ADPR concentrations were analyzed by a RapidFire High Throughput Mass Spectrometry System (Agilent Technologies, Santa Clara, CA) using an API4000 triple quadrupole mass spectrometer (AB Sciex Framingham, Mass.).

Compound	IC50 [µM]
CS(=O)(=O)N1C2CCC1C(n1sc(Nc3c(Cl)ccc4ncccc34)c(C#N)c1=O)C2 (centres unmarked) [Example 26]	< 1

Same assay, conditions: SAM-TIR lysate 5 μg/mL, 2 h pre-incubation with compound, 5 μM NAD+, 2 hr room temperature; read-out: SARM1 IC50

Compound	IC50 [µM]
N#Cc1c(Nc2ccccc2C(F)(F)F)sn(-c2cccc(-c3cnco3)c2)c1=O [Example 18]	< 1
N#Cc1c(Nc2ccccc2C(F)(F)F)sn(C2CCNCC2)c1=O [Example 19]	< 1
CS(=O)(=O)N1CCC(n2sc(Nc3ccccc3C(F)(F)F)c(C#N)c2=O)CC1 [Example 20]	< 1
N#Cc1c(Nc2ccccc2C(F)(F)F)sn([C@@H]2CCNC2)c1=O [Example 21]	< 1
CS(=O)(=O)N1CC[C@H](n2sc(Nc3c(Cl)ccc4ncccc34)c(C#N)c2=O)C1 [Example 22]	< 1
CC(=O)N1CC[C@H](n2sc(Nc3ccccc3C(F)(F)F)c(C#N)c2=O)C1 [Example 23]	< 1
N#Cc1c(Nc2ccccc2C(F)(F)F)sn(C2CNCC23CC3)c1=O (centres unmarked) [Example 24]	< 1
N#Cc1c(Nc2cccc3ncccc23)sn(-c2ccc3c(c2)OCCO3)c1=O [Example 25]	< 1
N#Cc1c(Nc2ccccc2C(F)(F)F)sn([C@@H]2CNCC23CC3)c1=O [Example 27]	< 1
C[C@@H]1CN(S(C)(=O)=O)C[C@H]1n1sc(Nc2c(Cl)ccc3ncccc23)c(C#N)c1=O [Example 28]	< 1
CC(C)(C)OC(=O)n1ncc2cc(-n3sc(Nc4ccccc4C(F)(F)F)c(C#N)c3=O)ccc21 [Example 29]	< 1
CS(=O)(=O)N1CC[C@@H](n2sc(Nc3c(Cl)ccc4ncccc34)c(C#N)c2=O)C1 [Example 30]	< 1
N#Cc1c(Nc2ccccc2C(F)(F)F)sn(C2CCOCC2)c1=O [Example 31]	< 1
N#Cc1c(Nc2c(Cl)ccc3ncccc23)sn([C@@H]2CCNC2)c1=O [Example 32]	< 1
CN1CC[C@@H](n2sc(Nc3c(Cl)ccc4ncccc34)c(C#N)c2=O)C1 [Example 33]	< 1
CS(=O)(=O)N1CC2CCC(C1)C2n1sc(Nc2c(Cl)ccc3ncccc23)c(C#N)c1=O (centres unmarked) [Example 34]	< 1
COCCN(C)C(=O)c1c(Nc2ccccc2C(F)(F)F)sn(-c2ccccc2)c1=O [Example 35]	< 1

Compound	IC50 [µM]
CN1C[C@H](n2sc(Nc3c(Cl)ccc4ncccc34)c(C#N)c2=O)C2(CC2)C1 [Example 36]	< 1
N#Cc1c(Nc2c(Cl)ccc3ncccc23)sn(C2C3CCC2CNC3)c1=O (centres unmarked) [Example 37]	< 1
O=C(c1c(Nc2c(Cl)cccc2Cl)sn(-c2ccccc2)c1=O)N1CCOCC1 [Example 38]	< 1
O=C(c1c(Nc2ccccc2C(F)(F)F)sn(-c2ccccc2)c1=O)N1CCOCC1 [Example 39]	< 1
CN1C[C@@H](n2sc(Nc3c(Cl)ccc4ncccc34)c(C#N)c2=O)C2(CC2)C1 [Example 41]	< 1
CS(=O)(=O)N1CC2CCC1C2n1sc(Nc2c(Cl)ccc3ncccc23)c(C#N)c1=O (centres unmarked) [Example 42]	< 1
C[C@H]1CNCC[C@H]1n1sc(Nc2c(Cl)ccc3ncccc23)c(C#N)c1=O [Example 43]	< 1
C[C@@H]1CNC[C@H]1n1sc(Nc2c(Cl)ccc3ncccc23)c(C#N)c1=O [Example 44]	< 1
COc1cccc(OC)c1Nc1sn([C@@H]2CCNC2)c(=O)c1C(=O)N1CCOCC1 [Example 46]	< 1
Cc1cnn(C)c1-n1sc(Nc2c(Cl)ccc3ncccc23)c(C#N)c1=O [Example 47]	1 to 5
N#Cc1c(Nc2c(Cl)ccc3ncccc23)sn([C@H]2CCNC2)c1=O [Example 48]	> 5
CN(c1ccccc1C(F)(F)F)c1sn([C@@H]2CNCC23CC3)c(=O)c1C#N [Example 49]	> 5
N#Cc1c(Nc2c(Cl)cccc2Cl)sn(-c2ccc(-n3cccn3)cc2)c1=O [Example 50]	< 1
N#Cc1c(Nc2ccccc2C(F)(F)F)sn(-c2ccc(-n3cccn3)cc2)c1=O [Example 51]	< 1
N#Cc1c(Nc2ccccc2C(F)(F)F)sn(-c2ccc3c(c2)OCCO3)c1=O [Example 52]	< 1
N#Cc1c(Nc2ccccc2C(F)(F)F)sn(-c2ccc3cn[nH]c3c2)c1=O [Example 53]	< 1

Now from value to compound:

IC50 [µM]	Compound
< 1	CN1CCC(n2sc(Nc3c(Cl)ccc4ncccc34)c(C#N)c2=O)CC1 [Example 1]
< 1	CC(=O)N1CCC(n2sc(Nc3ccccc3C(F)(F)F)c(C#N)c2=O)CC1 [Example 2]
< 1	C[C@@H]1CNC[C@@H]1n1sc(Nc2ccccc2C(F)(F)F)c(C#N)c1=O [Example 3]
< 1	N#Cc1c(Nc2ccccc2C(F)(F)F)sn(-c2ccccc2)c1=O [Example 4]
< 1	N#Cc1c(Nc2ccccc2C(F)(F)F)sn([C@H]2CCNC2)c1=O [Example 5]
< 1	N#Cc1c(Nc2ccccc2C(F)(F)F)sn(-c2cccc(C(N)=O)c2)c1=O [Example 6]
< 1	CS(=O)(=O)N1CC[C@H](n2sc(Nc3ccccc3C(F)(F)F)c(C#N)c2=O)C1 [Example 7]
< 1	N#Cc1c(Nc2ccccc2C(F)(F)F)sn(-c2cccc3[nH]ncc23)c1=O [Example 8]
< 1	N#Cc1c(Nc2ccccc2C(F)(F)F)sn([C@H]2CCN(C(N)=O)C2)c1=O [Example 9]
< 1	N#Cc1c(Nc2ccccc2C(F)(F)F)sn([C@@H]2CCN(C(N)=O)C2)c1=O [Example 10]
< 1	N#Cc1c(Nc2ccccc2C(F)(F)F)sn(-c2ccc3[nH]ncc3c2)c1=O [Example 11]
< 1	CS(=O)(=O)N1CC[C@@H](n2sc(Nc3ccccc3C(F)(F)F)c(C#N)c2=O)C1 [Example 12]
< 1	N#Cc1c(Nc2c(Cl)ccc3ncccc23)sn(-c2ccn[nH]2)c1=O [Example 13]
< 1	N#Cc1c(Nc2ccccc2C(F)(F)F)sn(C2CCN(C(N)=O)CC2)c1=O [Example 14]
< 1	CC(=O)N1CC[C@@H](n2sc(Nc3ccccc3C(F)(F)F)c(C#N)c2=O)C1 [Example 15]
< 1	N#Cc1c(Nc2c(Cl)ccc3ncccc23)sn(C2CCNCC2)c1=O [Example 16]
